From patent US5496697A, “Methods and apparatus for detecting the effect of cell affecting agents on living cells” (priority 1993, dated 1996)

What was measured:
Dx5 = settings: previously characterized; cited from earlier work
MDCK cells = assay: metabolic rate of MDCK cells grown on the silicon sensor surface; assay type: cell-based, canine; settings: 3 μM epinephrine, primary introduction

SMILES | resistance of Dx5 (Dx5) | change of metabolic rate vs. control rate (MDCK cells)
COc1cccc2c1C(=O)c1c(O)c3c(c(O)c1C2=O)C[C@@](O)(C(=O)CO)C[C@@H]3O[C@H]1C[C@H](N)[C@H](O)[C@H](C)O1 [doxorubicin] | resistant | 
CNC[C@H](O)c1ccc(O)c(O)c1 [epinephrine] |  | did not significantly alter the metabolic rate
CC[C@]1(O)C[C@H]2CN(CCc3c([nH]c4ccccc34)[C@@](C(=O)OC)(c3cc4c(cc3OC)N(C=O)[C@H]3[C@@](O)(C(=O)OC)[C@H](OC(C)=O)[C@]5(CC)C=CCN6CC[C@]43[C@@H]65)C2)C1 [vincristine] | resistant | 
